Data on 1 molecule can be found in patent publication US20260027096A1, “PHD INHIBITORS” (Oxford University Innovation Limited, priority 2023, published 2026).

SMILES strings stand for the structures.

The subject of data set [1] is murine iMLL-AF9 LSK cells in DOX-treated recipient mice. As to the kind of experiment: iMLL-AF9 LSK cell transplantation AML model. The class given is in vivo, mouse. The conditions noted are these: vs vehicle. The text has this:
(A) 100,000 THP-1 cells were transplanted into NBSGW recipient mice. […] (B-C) Percentage of human CD45+CD33+ and human CD45+CD14+ cells in the BM and spleen, respectively (n=4-5). (D) 100,000 OCI-AML3 cells were transplanted into NBSGW recipient mice. […] (E) Percentage of human CD45+CD33+CD14+ cells in the liver, BM and PB, respectively (n=3-7). (F) 2,000 LSK cells from iMLL-AF9;Control mice were sorted and transplanted into irradiated recipient mice. […] (H) LDA in secondary recipients transplanted with indicated doses of CD45.2+BM cells from primary recipients (n=9-10 per dose). (I) Plot showing Poisson statistical analysis. […] LSC frequencies were calculated using the ELDA software 121. […]
For primary transplantations of leukemic cells, 100,000 Meis1/Hoxa9-transduced c-Kit^+ cells or 2,000 iMLL-AF9 Lin Sca-1^+c-Kit^+ (LSK) cells were transplanted into lethally irradiated CD45.1^+/CD45.2^+ recipient mice (together with 200,000 unfractionated support CD45.1^+ wild-type BM cells). All recipient were culled upon reaching their humane endpoint as recorded in survival curves.
For secondary transplantations of leukaemic cells, 50,000 cells harvested from primary recipients were transplanted into lethally irradiated CD45.1+/CD45.2+recipient mice (together with 200,000 unfractionated support CD45.1+wild-type BM cells). […] LSC frequency was calculated using ELDA software^121. […]

Data set [2] in a line: Steady-state haematopoiesis analyses in C57B16 mice. In kind it is in vivo, mouse. The conditions noted are these: 30 mg/kg i.p. twice daily for 14 days. As to the method: For steady-state analyses, 8-to 10-week-old mixed gender C57B16 mice were injected intraperitoneally twice daily for 14 days with 30 mg/kg IOX5 or vehicle control. Mice were bled before and after treatment, and culled 12 hrs after the final dosing.
Given that Dap has been deemed safe in murine and human studies^37,72,78, the impact of IOX5 (68, example 46) on normal hematopoiesis was then examined.

In data set [3] the test system is BNIP3 protein in THP-1 cells.
The subject of data set [4] is MV411 AML cells in NBSGW recipient mice. Kind of data set: MV411 xenotransplantation in NBSGW mice, combination with Venetoclax. In kind it is in vivo, mouse. The conditions noted are these: 14 days treatment; IOX5 i.p. twice daily, Venetoclax o.g. once daily. How it is done:
14 days following transplantation, recipient mice were treated with IOX5 (68, example 46), Venetoclax or vehicle control. Dosing regimen consisted of 2× daily via i.p. injection (IOX5 (68, example 46) or vehicle) and/or 1× daily via o.g. (Venetoclax or vehicle). […] (E-G) Percentage of human CD45+CD33+CD14+ cells in the BM, spleen and liver, respectively (n=5). (H) Survival curve of mice treated with IOX5 (68, example 46), Venetoclax, IOX5 (68, example 46)+Venetoclax or vehicle control (n=6-7). (I-J) Proliferation and Annexin-V+DAPI+analyses, respectively, of THP-1 cells treated with Ven, IOX5, FIH inhibitor (FIHi; DM-NOFD), IOX5 (68, example 46)+FIHi, IOX5 (68, example 46)+Ven, FIHi+Ven, IOX5 (68, example 46)+FIHi+Ven or vehicle control (n=6). Statistical significance represented as in (A-B). Data represent mean±SEM; *p<0.05; ** p<0.01; *** p<0.001; **** p<0.0001.
100,000 THP-1 cells, 100,000 OCI-AM3 cells or 100,000 MV411 cells (for combination experiments) were tail vein injected into non-irradiated 10-to 12-week-old mixed gender NBSGW mice and began drug treatment 14 days after transplantation. […] Mice were culled 5 weeks after transplantation.
Mice in combination treatment experiments with Venetoclax (ABT-199) (MCE) were dosed once daily with 100 mg/kg via oral gavage (o.g.).
Further to findings in Example 170, the efficacy of IOX5 (68, example 46)+Venetoclax combination in vivo was investigated (FIG. 38D). MV411 AML cells were engrafted (with MLL-AF4 and FLT3-ITD mutation) and the recipient mice were treated with a vehicle, IOX5 (68, example 46), Venetoclax, and a combination of IOX5 (68, example 46)+Venetoclax.

As for `O=C(NCC1CCC(C(F)(F)F)CC1)c1c[nH]c(-n2cccn2)cc1=O` (centres unmarked) [IOX5], in data set [1] (i.p. twice daily for 14 days), the “survival of leukaemic mice” value is “significantly increased survival of leukaemic mice”. Besides, in data set [1] (secondary recipients), the “LSC frequency (limiting dilution assay)” value is listed as “significantly decreased LSC frequency”. Also, in data set [2], the HSPC compartment result was “no significant defects in the HSPC compartment”; the “differentiated PB, BM or spleen compartments” value is reported as “no detrimental impact on the differentiated PB, BM or spleen compartments”; the erythropoiesis entry was “enhanced erythropoiesis”. For the same molecule, the “BNIP3 protein (western blot)” value in data set [3] is “strongly upregulated BNIP3 protein”. Besides, in data set [4], the leukaemic burden entry is recorded as “decreased leukaemic burden” and the “survival of recipient mice” value is “extended survival of the recipient mice”.
